# Experimental data: patent US20040259764A1, “Reticulocyte depletion signatures” (priority 2002, published 2004)
# Like-named read-outs stand apart in the source and are kept apart here. Marks after values point to notes of the source that are not given here.
# How the values were obtained:
# [1] = tested on: Reticulocyte Depletion Signature (Alas2 and peripherin probes), bone marrow
# Source text: (§1) Compound dosing was based on the acute dose LD50s recorded in published reference or literature sources. […] The MTD (maximum tolerated dose) was then selected as the dose at which the animals […] 5-10% body weight during the 5-day range finding study. […] In addition, the clinical observations must show no or mild clinical signs during the whole of the range-finding study. At the next highest dose, signs and symptoms of adverse effects and exceeding those of the MTD should be seen to occur. Should these criteria not be met, the range-finding study is repeated using a modified dose range.
# (§2) After determination of the MTD and FED for a compound, each compound was dissolved in a vehicle for administration on day 1 of the study (additional daily doses were stored as frozen aliquots from this initial formulation). Each compound was administered to three individual male Sprague-Dawley rats for each of the two doses (MTD and FED) for one of four different times (0.25 day, 1 day, 3 days, and 5 days), yielding a total of up to 24 animals per compound study. Vehicle choice was based on solubility of the compound, effect of food on adsorption, and the vehicles used in the literature reports examined during the FED selection investigations, described above. Generally, the route and vehicle in which the FED was defined are used. When there was a choice of routes and vehicles, oral routes were chosen over injection routes. Many compounds, especially oncolytics, are only administerable intravenously. In such cases, the compound was administered as an intravenous formulation into the tail vein. Orally administered compounds were given dissolved in either water, 1% carboxymethycellulose (CMC) or corn oil. Intravenously and intraperitoneally administered compounds were given in 0.9% saline. Subcutaneously administered compounds were given in corn oil. Animal body weights were determined at 1 day and, where appropriate, at 4 days, before necropsy, and clinical observations were made on a daily basis. Control animals were dosed with vehicle only. Three male animals were used for each dose and time combination used for the compound treatment.
# (§3) Tissue harvest and handling: After the allocated treatment time, the tissues from the animals were harvested. […] All the tissues collected were divided to provide samples for histopathological analyses, and the remainder of each tissue was then snap-frozen.
# (§4) Preparation of enriched mRNA: Punch biopsies were taken from the frozen tissues and were completely homogenized before being processed using the MagNA Pure robot. (Roche Diagnostics Corp., Indianapolis, Ind.) in combination with the MagNA Pure LC RNA Isolation kit II (Roche Diagnostics Corp). The amount of lysis buffer was adjusted to allow 1 ml per 50 mg for liver tissue, or 1 ml per 80 mg for all other tissues. After complete homogenization and before loading of the samples into the 32-well MagNA Pure plate, the samples were syringed 5-6 times using a 20-gauge 3-ml syringe to ensure a smooth solution for robotic processing. Tissue sample processing was performed in duplicate wells (loading 150 μl of homogenized sample and 150 μl of additional lysis buffere to each well) of the MagNA Pure LC, which is programmed to extract mRNA using oligo-dT selection technology into a final elution volume of 100 μl. Poly A(+) RNA sample concentration was performed using a standard ethanol precipitation protocol in the presence of glycogen (50 μg/ml). After precipitation the final purified mRNA sample was resuspended in 7 μl DEPC-treated water and quantified using a Ribogreen high-range assay (Molecular Probes) on the Victor-Wallace II Fluorometer (Perkin-Elmer).
# [2] = tested on: Reticulocyte Depletion Signature (Alas2 and peripherin probes), liver
# Source text: as §1, §2, §3, §4
# [3] = tested on: Reticulocyte Depletion Signature (Alas2 and peripherin probes), spleen
# Source text: as §1, §2, §3, §4
# [4] = bone marrow data, signature derived from liver, * = p < 0.01
# [5] = liver data, highest training treatment normalised to 100, * = p < 0.01
# [6] = spleen data, signature derived from liver, * = p < 0.01
compound,measurement,setting,value
S=C=Nc1cccc2ccccc12 [1-NAPHTHYL ISOTHIOCYANATE],SPS (Bone Marrow),[1]; [4],0
C[C@]12CCC(=O)C=C1CC[C@@H]1[C@@H]2CC[C@@]2(C)[C@H]1CC[C@]2(C)O [17-METHYLTESTOSTERONE],Signature Projection Score (SPS),[2]; [5],59*
CN(C)c1nc(N(C)C)nc(N(C)C)n1 [ALTRETAMINE],SPS (Bone Marrow),"[1]; rat, in vivo",0
same,SPS (Spleen),"[3]; rat, in vivo",0
CC(C)c1c(C(=O)Nc2ccccc2)c(-c2ccccc2)c(-c2ccc(F)cc2)n1CC[C@@H](O)C[C@@H](O)CC(=O)O [ATORVASTATIN],Signature Projection Score (SPS),"[2]; rat, in vivo",29
C[C@]12CC[C@@H]3c4ccc(O)cc4CC[C@H]3[C@@H]1CC[C@@H]2O [BETA ESTRADIOL],Signature Projection Score (SPS),[2]; [5],27
CC(C)(Oc1ccc(CCNC(=O)c2ccc(Cl)cc2)cc1)C(=O)O [BEZAFIBRATE],Signature Projection Score (SPS),"[2]; rat, in vivo",16
CC(C)(c1ccc(O)cc1)c1ccc(O)cc1 [BISPHENOL A],SPS (Bone Marrow),"[1]; rat, in vivo",0
same,SPS (Spleen),"[3]; rat, in vivo",0
Oc1c(Cl)cc(Cl)cc1Sc1cc(Cl)cc(Cl)c1O [BITHIONOL],SPS (Bone Marrow),"[1]; rat, in vivo",0
same,SPS (Spleen),"[3]; rat, in vivo",27
CS(=O)(=O)OCCCCOS(C)(=O)=O [BUSULFAN],Signature Projection Score (SPS),"[2]; rat, in vivo",43
same,SPS (Bone Marrow),"[1]; rat, in vivo",0
same,SPS (Spleen),"[3]; rat, in vivo",34
ClC(Cl)(Cl)Cl [CARBON TETRACHLORIDE],SPS (Bone Marrow),[1]; [4],0
N.N.O=C([O-])C1(C(=O)[O-])CCC1.[Pt+2] [CARBOPLATIN],SPS (Bone Marrow),[1]; [4],0
same,SPS (Spleen),[3]; [6],0
O=NN(CCCl)C(=O)NCCCl [CARMUSTINE],Signature Projection Score (SPS),[2]; [5],42
same,SPS (Bone Marrow),[1]; [4],0
same,SPS (Spleen),[3]; [6],0
O=C(O)CCCc1ccc(N(CCCl)CCCl)cc1 [CHLORAMBUCIL],Signature Projection Score (SPS),[2]; [5],33
same,SPS (Bone Marrow),[1]; [4],0
same,SPS (Spleen),[3]; [6],0
N.N.[Cl][Pt][Cl] [CISPLATIN],SPS (Bone Marrow),[1]; [4],0
same,SPS (Spleen),[3]; [6],0
COc1cccc2c1C(=O)c1c(O)c3c(c(O)c1C2=O)C[C@@](O)(C(C)=O)C[C@@H]3O[C@H]1C[C@H](N)[C@H](O)[C@H](C)O1 [DAUNORUBICIN],SPS (Bone Marrow),[1]; [4],0
C[C@@H]1C[C@H]2[C@@H]3CCC4=CC(=O)C=C[C@]4(C)[C@@]3(F)[C@@H](O)C[C@]2(C)[C@@]1(O)C(=O)CO [DEXAMETHASONE],Signature Projection Score (SPS),"[2]; rat, in vivo",22
CC/C(=C(/CC)c1ccc(O)cc1)c1ccc(O)cc1 [DIETHYLSTILBESTROL],Signature Projection Score (SPS),"[2]; rat, in vivo",33
same,SPS (Bone Marrow),"[1]; rat, in vivo",0
same,SPS (Spleen),"[3]; rat, in vivo",88*
C[C@H]1O[C@@H](n2cc(F)c(=O)[nH]c2=O)[C@H](O)[C@@H]1O [DOXIFLURIDINE],SPS (Bone Marrow),"[1]; rat, in vivo",0
C[C@]12CC[C@@H]3c4ccc(O)cc4CC[C@H]3[C@@H]1C[C@@H](O)[C@@H]2O [ESTRIOL],Signature Projection Score (SPS),"[2]; rat, in vivo",41
CCO [ETHANOL],SPS (Bone Marrow),"[1]; rat, in vivo",0
C#C[C@]1(O)CC[C@H]2[C@@H]3CCc4cc(O)ccc4[C@H]3CC[C@@]21C [ETHINYLESTRADIOL],Signature Projection Score (SPS),"[2]; rat, in vivo",75*
OC(Cn1cncn1)(Cn1cncn1)c1ccc(F)cc1F [FLUCONAZOLE],Signature Projection Score (SPS),"[2]; rat, in vivo",26
CC(C)n1c(/C=C/C(O)CC(O)CC(=O)O)c(-c2ccc(F)cc2)c2ccccc21 (centres unmarked) [FLUVASTATIN],Signature Projection Score (SPS),"[2]; rat, in vivo",0
Cc1ccc(C)c(OCCCC(C)(C)C(=O)O)c1 [GEMFIBROZIL],Signature Projection Score (SPS),"[2]; rat, in vivo",18
CC1=C(/C=C/C(C)=C/C=C/C(C)=C\C(=O)O)C(C)(C)CCC1 [ISOTRETINOIN],Signature Projection Score (SPS),"[2]; rat, in vivo",23
CC(=O)N1CCN(c2ccc(OCC3COC(Cn4ccnc4)(c4ccc(Cl)cc4Cl)O3)cc2)CC1 (centres unmarked) [KETOCONAZOLE],Signature Projection Score (SPS),"[2]; rat, in vivo",29
Cc1oncc1C(=O)Nc1ccc(C(F)(F)F)cc1 [LEFLUNOMIDE],Signature Projection Score (SPS),"[2]; rat, in vivo",22
same,SPS (Bone Marrow),"[1]; rat, in vivo",0
same,SPS (Spleen),"[3]; rat, in vivo",71*
O=NN(CCCl)C(=O)NC1CCCCC1 [LOMUSTINE],Signature Projection Score (SPS),[2]; [5],18
same,SPS (Bone Marrow),[1]; [4],0
same,SPS (Spleen),[3]; [6],0
CC[C@H](C)C(=O)O[C@H]1C[C@@H](C)C=C2C=C[C@H](C)[C@H](CC[C@@H]3C[C@@H](O)CC(=O)O3)[C@H]21 [LOVASTATIN],Signature Projection Score (SPS),"[2]; rat, in vivo",26
CN(Cc1cnc2nc(N)nc(N)c2n1)c1ccc(C(=O)N[C@@H](CCC(=O)O)C(=O)O)cc1 [METHOTREXATE],Signature Projection Score (SPS),"[2]; rat, in vivo",72*
same,SPS (Bone Marrow),"[1]; rat, in vivo",0
same,SPS (Spleen),"[3]; rat, in vivo",148*
Clc1ccc(COC(Cn2ccnc2)c2ccc(Cl)cc2Cl)c(Cl)c1 (centres unmarked) [MICONAZOLE],Signature Projection Score (SPS),"[2]; rat, in vivo",38
CC#C[C@]1(O)CC[C@H]2[C@@H]3CCC4=CC(=O)CCC4=C3[C@@H](c3ccc(N(C)C)cc3)C[C@@]21C [MIFEPRISTONE],Signature Projection Score (SPS),"[2]; rat, in vivo",24
COc1c(C)c2c(c(O)c1C/C=C(\C)CCC(=O)OCCN1CCOCC1)C(=O)OC2 [MYCOPHENOLATE MOFETIL],SPS (Bone Marrow),[1]; [4],0
"CN(C)C=O [N,N-DIMETHYLFORMAMIDE]",SPS (Bone Marrow),[1]; [4],0
same,SPS (Spleen),[3]; [6],0
CCN(CC)N=O [N-NITROSODIETHYLAMINE],SPS (Bone Marrow),[1]; [4],0
same,SPS (Spleen),[3]; [6],0
C#C[C@]1(OC(C)=O)CC[C@H]2[C@@H]3CCC4=CC(=O)CC[C@@H]4[C@H]3CC[C@@]21C [NORETHINDRONE ACETATE],Signature Projection Score (SPS),"[2]; rat, in vivo",26
O=C1[O][Pt]2([NH][C@@H]3CCCC[C@H]3[NH]2)[O]C1=O [OXALIPLATIN],SPS (Bone Marrow),[1]; [4],18
O=C(c1ccc(OCCN2CCCCC2)cc1)c1c(-c2ccc(O)cc2)sc2cc(O)ccc12 [RALOXIFENE],Signature Projection Score (SPS),"[2]; rat, in vivo",23
CC[C@]1(O)C[C@@H]2CN(CCc3c([nH]c4ccccc34)[C@@](C(=O)OC)(c3cc4c(cc3OC)N(C)[C@H]3[C@@](O)(C(=O)OC)[C@H](OC(C)=O)[C@]5(CC)C=CCN6CC[C@]43[C@@H]65)C2)C1 [VINBLASTINE],SPS (Bone Marrow),"[1]; rat, in vivo",0
CC[C@]1(O)C[C@H]2CN(CCc3c([nH]c4ccccc34)[C@@](C(=O)OC)(c3cc4c(cc3OC)N(C=O)[C@H]3[C@@](O)(C(=O)OC)[C@H](OC(C)=O)[C@]5(CC)C=CCN6CC[C@]43[C@@H]65)C2)C1 [VINCRISTINE],SPS (Bone Marrow),"[1]; rat, in vivo",126*
CCC1=C[C@@H]2CN(C1)Cc1c([nH]c3ccccc13)[C@@](C(=O)OC)(c1cc3c(cc1OC)N(C)[C@H]1[C@@](O)(C(=O)OC)[C@H](OC(C)=O)[C@]4(CC)C=CCN5CC[C@]31[C@@H]54)C2 [VINORELBINE],SPS (Bone Marrow),"[1]; rat, in vivo",132*
